Measurements: PubChem BioAssay AID2060599 (Molecular Pharmacology Branch, DTP, NCI, 2025)
Several values for one entry are separate records, joined by “and”; a condition that tells them apart may be missing. Equal values may be shown once.

System: 817829-284-R-J1-PDC complex spheroids, viability
Experiment: Anticancer human tumor 817829-284-R-J1-PDC patient-derived colon adenocarcinoma cell line growth inhibition [CLK]
Settings: for viability, T/C: stronger effect = lower value
Summary of the method: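 Patient-derived tumor cells grown as complex spheroids with HUVEC endothelial cells and mesenchymal stem cells, treated with drug combinations. Concentrations descend in half-log steps from near clinical Cmax, or from 10 microM if Cmax unknown.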

[1] = curve of first compound, second compound 0.0316 µM
[2] = curve of first compound, second compound 0.1 µM
[3] = curve of first compound, second compound 0.316 µM
[4] = curve of first compound, second compound 1 µM
[5] = curve of first compound, second compound 3.16 µM
[6] = curve of first compound, second compound 10 µM
[7] = second compound 0.0316 µM, first compound 0.0316 µM
[8] = second compound 0.0316 µM, first compound 0.1 µM
[9] = second compound 0.0316 µM, first compound 0.316 µM
[10] = second compound 0.0316 µM, first compound 1 µM
[11] = second compound 0.0316 µM, first compound 3.16 µM
[12] = second compound 0.0316 µM, first compound 10 µM
[13] = second compound 0.1 µM, first compound 0.0316 µM
[14] = second compound 0.1 µM, first compound 0.1 µM
[15] = second compound 0.1 µM, first compound 0.316 µM
[16] = second compound 0.1 µM, first compound 1 µM
[17] = second compound 0.1 µM, first compound 3.16 µM
[18] = second compound 0.1 µM, first compound 10 µM
[19] = second compound 0.316 µM, first compound 0.0316 µM
[20] = second compound 0.316 µM, first compound 0.1 µM
[21] = second compound 0.316 µM, first compound 0.316 µM
[22] = second compound 0.316 µM, first compound 1 µM
[23] = second compound 0.316 µM, first compound 3.16 µM
[24] = second compound 0.316 µM, first compound 10 µM
[25] = second compound 1 µM, first compound 0.0316 µM
[26] = second compound 1 µM, first compound 0.1 µM
[27] = second compound 1 µM, first compound 0.316 µM
[28] = second compound 1 µM, first compound 1 µM
[29] = second compound 1 µM, first compound 3.16 µM
[30] = second compound 1 µM, first compound 10 µM
[31] = second compound 3.16 µM, first compound 0.0316 µM
[32] = second compound 3.16 µM, first compound 0.1 µM
[33] = second compound 3.16 µM, first compound 0.316 µM
[34] = second compound 3.16 µM, first compound 1 µM
[35] = second compound 3.16 µM, first compound 3.16 µM
[36] = second compound 3.16 µM, first compound 10 µM
[37] = second compound 10 µM, first compound 0.0316 µM
[38] = second compound 10 µM, first compound 0.1 µM
[39] = second compound 10 µM, first compound 0.316 µM
[40] = second compound 10 µM, first compound 1 µM
[41] = second compound 10 µM, first compound 3.16 µM
[42] = second compound 10 µM, first compound 10 µM
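Note: spheroids exposed to the agents for seven days before readout.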

Structure (SMILES): COc1cccc2c1C(=O)c1c(O)c3c(c(O)c1C2=O)CC(O)(C(=O)CO)CC3OC1CC(N)C(O)C(C)O1 (configuration not stated) + CN1CCN(c2cc(C(=O)Nc3cc4cc(-c5cnn(C)c5)ccc4cn3)ccn2)CC1
- IC50 [1]: < 31.6 nM
- IC50 [2]: < 31.6 nM
- IC50 [3]: < 31.6 nM
- IC50 [4]: < 31.6 nM
- IC50 [5]: < 31.6 nM
- IC50 [6]: < 31.6 nM
- viability, T/C [7]: 19.4%
- viability, T/C [8]: 15.6%
- viability, T/C [9]: 3.99%
- viability, T/C [10]: 0.16%
- viability, T/C [11]: 0.37%
- viability, T/C [12]: 1.02%
- viability, T/C [13]: 18.2%
- viability, T/C [14]: 13.4%
- viability, T/C [15]: 2.32%
- viability, T/C [16]: 0.22%
- viability, T/C [17]: 0.51%
- viability, T/C [18]: 0.96%
- viability, T/C [19]: 1.68%
- viability, T/C [20]: 0.69%
- viability, T/C [21]: 0.24%
- viability, T/C [22]: 0.33%
- viability, T/C [23]: 0.63%
- viability, T/C [24]: 0.97%
- viability, T/C [25]: 0.12%
- viability, T/C [26]: 0.29%
- viability, T/C [27]: 0.26%
- viability, T/C [28]: 0.59%
- viability, T/C [29]: 0.53%
- viability, T/C [30]: 0.72%
- viability, T/C [31]: 0.14%
- viability, T/C [32]: 0.16%
- viability, T/C [33]: 0.24%
- viability, T/C [34]: 0.38%
- viability, T/C [35]: 0.38%
- viability, T/C [36]: 0.06%
- viability, T/C [37]: 0.04%
- viability, T/C [38]: 0.07%
- viability, T/C [39]: 0.11%
- viability, T/C [40]: 0.06%
- viability, T/C [41]: 0.1%
- viability, T/C [42]: 0.08%

Structure (SMILES): CC1(C)CCC(CN2CCN(c3ccc(C(=O)NS(=O)(=O)c4ccc(NCC5CCOCC5)c([N+](=O)[O-])c4)c(Oc4cnc5[nH]ccc5c4)c3)CC2)=C(c2ccc(Cl)cc2)C1
- viability, T/C (compound 0.0316 µM): 103%
- viability, T/C (compound 0.1 µM): 85.1%
- viability, T/C (compound 0.316 µM): 98.6%
- viability, T/C (compound 1 µM): 63.7%
- viability, T/C (compound 3.16 µM): 77.5%
- viability, T/C (compound 10 µM): 2.29%
- IC50 (curve of compound): 4310 nM

Structure (SMILES): COC1C=CCC(C)C(C)S(=O)(=O)NC(=O)c2ccc3c(c2)N(CC2CCC21)CC1(CCCc2cc(Cl)ccc21)CO3 (configuration not stated) + CNC(=O)c1ccc(Nc2nc(OC3CCCC3)c3c(-c4ccc5nc(C)oc5c4)c[nH]c3n2)c(OC)c1
- IC50 [1]: < 31.6 nM
- IC50 [2]: < 31.6 nM
- IC50 [3]: < 31.6 nM
- IC50 [4]: < 31.6 nM
- IC50 [5]: < 31.6 nM
- IC50 [6]: < 31.6 nM
- viability, T/C [7]: 31.3%
- viability, T/C [8]: 51.1%
- viability, T/C [9]: 31.1%
- viability, T/C [10]: 47.8%
- viability, T/C [11]: 45.3%
- viability, T/C [12]: 4.06%
- viability, T/C [13]: 27.3%
- viability, T/C [14]: 26.5%
- viability, T/C [15]: 18.7%
- viability, T/C [16]: 16.1%
- viability, T/C [17]: 7.61%
- viability, T/C [18]: 4.67%
- viability, T/C [19]: 21.2%
- viability, T/C [20]: 31.2%
- viability, T/C [21]: 22.6%
- viability, T/C [22]: 12.6%
- viability, T/C [23]: 6.09%
- viability, T/C [24]: 4.97%
- viability, T/C [25]: 19.7%
- viability, T/C [26]: 23.3%
- viability, T/C [27]: 19.9%
- viability, T/C [28]: 17.6%
- viability, T/C [29]: 6.44%
- viability, T/C [30]: 16%
- viability, T/C [31]: 19.7%
- viability, T/C [32]: 22.5%
- viability, T/C [33]: 21.7%
- viability, T/C [34]: 17.4%
- viability, T/C [35]: 7.34%
- viability, T/C [36]: 4.74%
- viability, T/C [37]: 27.4%
- viability, T/C [38]: 23.8%
- viability, T/C [39]: 19.8%
- viability, T/C [40]: 13.2%
- viability, T/C [41]: 7.33%
- viability, T/C [42]: 3.62%

Structure (SMILES): CC1COCCN1c1cc(C2(S(C)(=N)=O)CC2)nc(-c2ccnc3[nH]ccc23)n1 (configuration not stated)
- viability, T/C (compound 0.0316 µM): 63.5%
- viability, T/C (compound 0.1 µM): 99.9%
- viability, T/C (compound 0.316 µM): 62.4%
- viability, T/C (compound 1 µM): 39%
- viability, T/C (compound 3.16 µM): 9.17%
- viability, T/C (compound 10 µM): 4.99%
- IC50 (curve of compound): 626 nM

Structure (SMILES): CC(Nc1ccc2c(c1)OCCn1cc(N3C(=O)OCC3C(F)F)nc1-2)C(N)=O (configuration not stated) + CNC(=O)c1ccc(Nc2nc(OC3CCCC3)c3c(-c4ccc5nc(C)oc5c4)c[nH]c3n2)c(OC)c1
- IC50 [1]: < 31.6 nM
- IC50 [2]: < 31.6 nM
- IC50 [3]: < 31.6 nM
- IC50 [4]: < 31.6 nM
- IC50 [5]: < 31.6 nM
- IC50 [6]: < 31.6 nM
- viability, T/C [7]: 40%
- viability, T/C [8]: 32.3%
- viability, T/C [9]: 42.4%
- viability, T/C [10]: 48.6%
- viability, T/C [11]: 29.8%
- viability, T/C [12]: 20.4%
- viability, T/C [13]: 20.4%
- viability, T/C [14]: 26.4%
- viability, T/C [15]: 20.2%
- viability, T/C [16]: 20%
- viability, T/C [17]: 33.4%
- viability, T/C [18]: 15.1%
- viability, T/C [19]: 37.9%
- viability, T/C [20]: 19.6%
- viability, T/C [21]: 19.9%
- viability, T/C [22]: 21.6%
- viability, T/C [23]: 18.5%
- viability, T/C [24]: 15.5%
- viability, T/C [25]: 23.4%
- viability, T/C [26]: 20.8%
- viability, T/C [27]: 16.7%
- viability, T/C [28]: 17.6%
- viability, T/C [29]: 16.1%
- viability, T/C [30]: 15.3%
- viability, T/C [31]: 22.2%
- viability, T/C [32]: 18.8%
- viability, T/C [33]: 16.5%
- viability, T/C [34]: 18.6%
- viability, T/C [35]: 13.1%
- viability, T/C [36]: 13.6%
- viability, T/C [37]: 15.1%
- viability, T/C [38]: 16.6%
- viability, T/C [39]: 14%
- viability, T/C [40]: 18.2%
- viability, T/C [41]: 16.8%
- viability, T/C [42]: 9.33%

Structure (SMILES): C=C(F)C(=O)N1CCN(c2nc(OCC3CCCN3C)nc3c2CCN(c2cccc4cccc(Cl)c24)C3)CC1CC#N (configuration not stated)
- viability, T/C (compound 0.0316 µM): 99.4% and 105%
- viability, T/C (compound 0.1 µM): 73% and 144%
- viability, T/C (compound 0.316 µM): 141% and 96.3%
- viability, T/C (compound 1 µM): 77.1% and 84.6%
- viability, T/C (compound 3.16 µM): 20.8% and 21.4%
- viability, T/C (compound 10 µM): 0.08% and 0.14%
- IC50 (curve of compound): 1770 nM and 1850 nM
